In this assay the target is T1, Nanoluciferase-BRD9 fusion protein (3×FLAG-NLuc-BRD9) in SYO-1 cells (Homo sapiens, UniProt Q9H8M2).
T1 construct: expressed in transfected cells; host or cells: SYO-1
T1 sequence (Q9H8M2 1-597): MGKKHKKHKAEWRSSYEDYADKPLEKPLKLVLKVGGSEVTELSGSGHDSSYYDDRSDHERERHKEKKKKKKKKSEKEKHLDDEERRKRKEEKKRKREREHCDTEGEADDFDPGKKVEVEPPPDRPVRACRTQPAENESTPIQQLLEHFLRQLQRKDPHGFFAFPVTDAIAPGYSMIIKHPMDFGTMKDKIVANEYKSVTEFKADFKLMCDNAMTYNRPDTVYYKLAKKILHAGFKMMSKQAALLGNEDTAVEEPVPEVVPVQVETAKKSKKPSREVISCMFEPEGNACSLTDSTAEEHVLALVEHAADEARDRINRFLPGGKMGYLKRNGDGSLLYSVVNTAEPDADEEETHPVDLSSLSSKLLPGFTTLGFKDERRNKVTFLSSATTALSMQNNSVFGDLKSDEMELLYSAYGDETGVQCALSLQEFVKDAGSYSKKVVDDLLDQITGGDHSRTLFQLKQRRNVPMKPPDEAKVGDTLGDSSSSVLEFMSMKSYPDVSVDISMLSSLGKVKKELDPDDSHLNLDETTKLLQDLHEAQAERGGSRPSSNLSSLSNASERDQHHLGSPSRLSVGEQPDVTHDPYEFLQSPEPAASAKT
The assay is described as follows: SYO1 BRD9 NanoLuc degradation assay. It is filed as cell-based. The conditions noted are these: Table 6B; SYO-1 cells expressing 3×FLAG-NLuc-BRD9, 6 hours incubation, 1 μM top dose; read-out: SYO1 BRD9-NanoLuc degradation IC50. On the procedure:
Procedure: A stable SYO-1 cell line expressing 3×FLAG-NLuc-BRD9 was generated. On day 0 cells were seeded in 30 μL media into each well of 384-well cell culture plates. The seeding density was 8000 cells/well. On day 1, cells were treated with 30 nL DMSO or 30 nL of 3-fold serially DMSO-diluted compounds (10 points in duplicates with 1 μM as final top dose). Subsequently plates were incubated for 6 hours in a standard tissue culture incubator and equilibrated at room temperature for 15 minutes. Nanoluciferase activity was measured by adding 15 μL of freshly prepared Nano-Glo Luciferase Assay Reagent (Promega N1130), shaking the plates for 10 minutes and reading the bioluminescence using an EnVision reader. • Results: The Inhibition % was calculated using the following formula: % Inhibition=100×(LumHC−LumSample)/(LumHC−LumLC). DMSO treated cells are employed as High Control (HC) and 1 μM of a known BRD9 degrader standard treated cells are employed as Low Control (LC).
In the case of `COc1cc(-c2cn(C)c(=O)c3cc(C(=O)NCC4CC5(CCN(CCCN6CCN(c7ccc8c(c7)C(=O)N(C7CCC(=O)NC7=O)C8=O)CC6)CC5)CO4)sc23)cc(OC)c1CN(C)C` (stereo not drawn) [Compound D49], the DC50 was under 10 nM. In the case of `COc1cc(-c2cn(C)c(=O)c3cc(C(=O)NCC4CC5(CCN(CCN6CCN(c7ccc8c(c7)C(=O)N(C7CCC(=O)NC7=O)C8=O)CC6)CC5)CO4)sc23)cc(OC)c1CN(C)C` (stereo not drawn) [Compound D50], the DC50 was under 10 nM. The value for `COc1cc(-c2cn(C)c(=O)c3cc(C(=O)NCC4CC5(C4)CN(C(=O)CCN4CCN(c6ccc7c(c6)C(=O)N(C6CCC(=O)NC6=O)C7=O)CC4)C5)sc23)cc(OC)c1CN(C)C` (stereo not drawn) [Compound D51] was over 10 nM; that for `COc1cc(-c2cn(C)c(=O)c3cc(C(=O)NCC4CC5(C4)CN(CCCN4CCN(c6ccc7c(c6)C(=O)N(C6CCC(=O)NC6=O)C7=O)CC4)C5)sc23)cc(OC)c1CN(C)C` (stereo not drawn) [Compound D52] was over 10 nM; that for `COc1cc(-c2cn(C)c(=O)c3cc(C(=O)NCC4CC5(C4)CN(CCN4CCN(c6ccc7c(c6)C(=O)N(C6CCC(=O)NC6=O)C7=O)CC4)C5)sc23)cc(OC)c1CN(C)C` (stereo not drawn) [Compound D53] was over 10 nM. The value for `COc1cc(-c2cn(C)c(=O)c3cc(C(=O)NC4CCC45CCN(C(=O)CCN4CCN(c6ccc7c(c6)C(=O)N(C6CCC(=O)NC6=O)C7=O)CC4)CC5)sc23)cc(OC)c1CN(C)C` (stereo not drawn) [Compound D54] was over 100 nM; that for `COc1cc(-c2cn(C)c(=O)c3cc(C(=O)NC4CCC45CCN(CCCN4CCN(c6ccc7c(c6)C(=O)N(C6CCC(=O)NC6=O)C7=O)CC4)CC5)sc23)cc(OC)c1CN(C)C` (stereo not drawn) [Compound D55] was over 100 nM; that for `COc1cc(-c2cn(C)c(=O)c3cc(C(=O)NCC4CC45CCN(CCCN4CCN(c6ccc7c(c6)C(=O)N(C6CCC(=O)NC6=O)C7=O)CC4)CC5)sc23)cc(OC)c1CN(C)C` (stereo not drawn) [Compound D56] was over 10 nM. The value for `COc1cc(-c2cn(C)c(=O)c3cc(C(=O)NCC4CC45CCN(CCN4CCN(c6ccc7c(c6)C(=O)N(C6CCC(=O)NC6=O)C7=O)CC4)CC5)sc23)cc(OC)c1CN(C)C` (stereo not drawn) [Compound D57] was under 10 nM. With `COc1cc(-c2cn(C)c(=O)c3cc(C(=O)NC4CCC5CN(C(=O)CCN6CCN(c7ccc8c(c7)C(=O)N(C7CCC(=O)NC7=O)C8=O)CC6)CC54)sc23)cc(OC)c1CN(C)C` (stereo not drawn) [Compound D58], the DC50 was over 10 nM. The value for `COc1cc(-c2cn(C)c(=O)c3cc(NC(=O)C4CCN(CCCCCOc5cccc6c5C(=O)N(C5CCC(=O)NC5=O)C6=O)CC4(F)F)sc23)cc(OC)c1CN(C)C` (stereo not drawn) [Compound D59] was over 10 nM; that for `COc1cc(-c2cn(C)c(=O)c3cc(C(=O)NC4CCN(CCCN5CCN(c6ccc7c(c6)C(=O)N(C6CCC(=O)NC6=O)C7=O)CC5)CC4(F)F)sc23)cc(OC)c1CN(C)C` (stereo not drawn) [Compound D60] was under 10 nM.

Turning to `COc1cc(-c2cn(C)c(=O)c3cc(C(=O)NCC4CC5(CCN(C(=O)CCN6CCN(c7ccc8c(c7)C(=O)N(C7CCC(=O)NC7=O)C8=O)CC6)CC5)O4)sc23)cc(OC)c1CN(C)C` (stereo not drawn) [Compound D61], the DC50 was over 100 nM. The value for `COc1cc(-c2cn(C)c(=O)c3cc(C(=O)NCC4CC5(CCN(CCN6CCN(c7ccc8c(c7)C(=O)N(C7CCC(=O)NC7=O)C8=O)CC6)CC5)O4)sc23)cc(OC)c1CN(C)C` (stereo not drawn) [Compound D62] was over 10 nM; that for `COc1cc(-c2cn(C)c(=O)c3cc(C(=O)NC4C[C@@H]5CN(C(=O)CCN6CCN(c7ccc8c(c7)C(=O)N(C7CCC(=O)NC7=O)C8=O)CC6)C[C@H]45)sc23)cc(OC)c1CN(C)C` (stereo partly drawn) [Compound D63] was over 100 nM; that for `COc1cc(-c2cn(C)c(=O)c3cc(C(=O)NC4C[C@@H]5CN(CCN6CCN(c7ccc8c(c7)C(=O)N(C7CCC(=O)NC7=O)C8=O)CC6)C[C@H]45)sc23)cc(OC)c1CN(C)C` (stereo partly drawn) [Compound D64] was over 100 nM. The value for `COc1cc(-c2cn(C)c(=O)c3cc(C(=O)NC4CC5(CCN(CCN6CCN(c7ccc8c(c7)C(=O)N([C@@H]7CCC(=O)NC7=O)C8=O)CC6)C5)C4)sc23)cc(OC)c1CN(C)C` (stereo partly drawn) [Compound D65] was under 10 nM; that for `COc1cc(-c2cn(C)c(=O)c3cc(C(=O)NC4CC5(CCN(CCN6CCN(c7ccc8c(c7)C(=O)N([C@H]7CCC(=O)NC7=O)C8=O)CC6)C5)C4)sc23)cc(OC)c1CN(C)C` (stereo partly drawn) [Compound D66] was under 10 nM.

Turning to `COc1cc(-c2cn(C)c(=O)c3cc(C(=O)NCC4CC45CCN(C(=O)CCN4CCN(c6ccc7c(c6)C(=O)N(C6CCC(=O)NC6=O)C7=O)CC4)CC5)sc23)cc(OC)c1CN(C)C` (stereo not drawn) [Compound D67], the DC50 was over 10 nM.

With `COc1cc(-c2cn(C)c(=O)c3cc(C(=O)NC4CC5CC4CN5C(=O)CCN4CCN(c5ccc6c(c5)C(=O)N(C5CCC(=O)NC5=O)C6=O)CC4)sc23)cc(OC)c1CN(C)C` (stereo not drawn) [Compound D68], the DC50 was over 10 nM. The value for `COc1cc(-c2cn(C)c(=O)c3cc(C(=O)NC4CC5CC4CN5CCCN4CCN(c5ccc6c(c5)C(=O)N(C5CCC(=O)NC5=O)C6=O)CC4)sc23)cc(OC)c1CN(C)C` (stereo not drawn) [Compound D69] was over 10 nM. The value for `COc1cc(-c2cn(C)c(=O)c3cc(C(=O)NC4CC5CC4CN5CCN4CCN(c5ccc6c(c5)C(=O)N(C5CCC(=O)NC5=O)C6=O)CC4)sc23)cc(OC)c1CN(C)C` (stereo not drawn) [Compound D70] was under 10 nM. The value for `COc1cc(-c2cn(C)c(=O)c3cc(NC4CCN(C(=O)CCCCOc5ccc6c(c5)C(=O)N(C5CCC(=O)NC5=O)C6=O)CC4)sc23)cc(OC)c1CN(C)C` (stereo not drawn) [Compound D71] was over 10 nM; that for `COc1cc(-c2cn(C)c(=O)c3cc(C(=O)NC4CC5(CCN(C(=O)CCN6CCN(c7ccc8c(c7)C(=O)N(C7CCC(=O)NC7=O)C8=O)CC6)C5)C4)sc23)cc(OC)c1CN(C)C` (stereo not drawn) [Compound D72] was under 10 nM.

Take `COc1cc(-c2cn(C)c(=O)c3cc(C(=O)NC4CC5(CCN(CCCN6CCN(c7ccc8c(c7)C(=O)N(C7CCC(=O)NC7=O)C8=O)CC6)C5)C4)sc23)cc(OC)c1CN(C)C` (stereo not drawn) [Compound D73]: the DC50 was under 10 nM.

Take `COc1cc(-c2cn(C)c(=O)c3cc(C(=O)NC4CC5(C4)CN(C(=O)CCN4CCN(c6ccc7c(c6)C(=O)N(C6CCC(=O)NC6=O)C7=O)CC4)C5)sc23)cc(OC)c1CN(C)C` (stereo not drawn) [Compound D74]: the DC50 was under 10 nM. The value for `COc1cc(-c2cn(C)c(=O)c3cc(C(=O)NC4CC5(C4)CN(CCCN4CCN(c6ccc7c(c6)C(=O)N(C6CCC(=O)NC6=O)C7=O)CC4)C5)sc23)cc(OC)c1CN(C)C` (stereo not drawn) [Compound D75] was under 10 nM; that for `COc1cc(-c2cn(C)c(=O)c3cc(C(=O)NC4CC5CN(C(=O)CCN6CCN(c7ccc8c(c7)C(=O)N(C7CCC(=O)NC7=O)C8=O)CC6)CC5C4)sc23)cc(OC)c1CN(C)C` (stereo not drawn) [Compound D76] was over 10 nM. The value for `COc1cc(-c2cn(C)c(=O)c3cc(C(=O)NC4CCN(C(=O)CN5CCN(c6ccc7c(c6)C(=O)N(C6CCC(=O)NC6=O)C7=O)CC5)CC4)sc23)cc(OC)c1CN(C)C` (stereo not drawn) [Compound D77] was under 10 nM; that for `COc1cc(-c2cn(C)c(=O)c3cc(C(=O)NC4CCN(C(=O)CCN5CCN(c6ccc7c(c6)C(=O)N(C6CCC(=O)NC6=O)C7=O)CC5)CC4)sc23)cc(OC)c1CN(C)C` (stereo not drawn) [Compound D78] was under 10 nM; that for `COc1cc(-c2cn(C)c(=O)c3cc(C(=O)NC4CCN(CCN5CCN(c6ccc7c(c6)C(=O)N(C6CCC(=O)NC6=O)C7=O)CC5)CC4(F)F)sc23)cc(OC)c1CN(C)C` (stereo not drawn) [Compound D79] was under 10 nM. For the compound `COc1cc(-c2cn(C)c(=O)c3cc(C(=O)NC4CCC(N(C)CCCCOc5cccc6c5C(=O)N(C5CCC(=O)NC5=O)C6=O)CC4)sc23)cc(OC)c1CN(C)C` (stereo not drawn) [Compound D80], the DC50 was over 100 nM. As for `COc1cc(-c2cn(C)c(=O)c3cc(C(=O)NCC4CCN(CCCCOc5cccc6c5C(=O)N(C5CCC(=O)NC5=O)C6=O)CC4)sc23)cc(OC)c1CN(C)C` (stereo not drawn) [Compound D81], the DC50 was over 100 nM.

As for `COc1cc(-c2cn(C)c(=O)c3cc(C(=O)NC4CC5CC4CN5CCCCCOc4cccc5c4C(=O)N(C4CCC(=O)NC4=O)C5=O)sc23)cc(OC)c1CN(C)C` (stereo not drawn) [Compound D82], the DC50 was over 100 nM.

Consider `COc1cc(-c2cn(C)c(=O)c3cc(C(=O)NC4CCN(CC(F)(F)CCCOc5ccc6c(c5)C(=O)N(C5CCC(=O)NC5=O)C6=O)CC4)sc23)cc(OC)c1CN(C)C` (stereo not drawn) [Compound D83], for which the DC50 was under 10 nM.

Regarding `COc1cc(-c2cn(C)c(=O)c3cc(C(=O)NC4CCN(CCCCCOc5cccc6c5C(=O)N(C5CCC(=O)NC5=O)C6=O)CC4F)sc23)cc(OC)c1CN(C)C` (stereo not drawn) [Compound D84], the DC50 was under 10 nM.

Source of the values: patent publication US12686687B2, “Compounds and uses thereof” (Foghorn Therapeutics Inc., priority 2019, dated 2026).
